PMC2233883 (The Journal of General Physiology, 2004)

Target: T1, MloK1 (Mesorhizobium japonicum, UniProt Q98GN8)
T1 sequence (Q98GN8 1-355): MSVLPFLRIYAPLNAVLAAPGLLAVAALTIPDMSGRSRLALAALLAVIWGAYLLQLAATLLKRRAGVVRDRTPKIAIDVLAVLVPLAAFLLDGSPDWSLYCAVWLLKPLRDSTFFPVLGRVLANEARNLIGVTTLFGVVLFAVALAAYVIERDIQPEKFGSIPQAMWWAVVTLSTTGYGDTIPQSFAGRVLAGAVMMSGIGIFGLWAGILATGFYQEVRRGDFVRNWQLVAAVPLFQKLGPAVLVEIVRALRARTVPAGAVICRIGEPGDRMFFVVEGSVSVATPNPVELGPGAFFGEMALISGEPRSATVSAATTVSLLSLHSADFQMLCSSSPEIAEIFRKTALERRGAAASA
Experiment: […]+ uptake into MloK1-reconstituted liposomes, dose-response
Type: biochemical

Nc1nc2c(ncn2[C@@H]2O[C@@H]3COP(=O)(O)O[C@H]3[C@H]2O)c(=O)[nH]1 [cGMP]
EC50: 600 nM
